For this experiment, the system named is SARS-CoV-2. Nature of the experiment: Antiviral activity against SARS-CoV-2 hCoV-19/Egypt/NRC-03/2020 infected in Vero E6 cells assessed as reduction in plaque formation pretreated with cells for 1 hr followed by viral infection for 1 hr with subsequent replacement of compound containing medium and measured after 3 to 4 days by crystal violet staining based analysis. The format is functional, organism-based. The note with it: Severe acute respiratory syndrome coronavirus 2, hCoV-19/Egypt/NRC-03/2020, Vero C1008.

Values after ≈ are worked out from the molar mass of the structure shown.

`O=C(/C=C/c1ccc(O)c(O)c1)O[C@H](Cc1ccc(O)c(O)c1)C(=O)O` [ROSMARINIC ACID]: the IC50 (commonly the concentration at which inhibition is half-maximal) was found to be 0.0255 µg/mL (≈ 0.0707 µM).
